Measurements as given in the NIST ThermoML archive (doi:10.1016/j.jct.2007.11.008).
Numbers after ± are expanded uncertainties.

Assay: molar enthalpy of vaporization or sublimation
Conditions: 298 K; Crystal; Static calorimetry

Compound: CC(C)CN(CC(C)C)C(=S)NC(=O)c1cccs1
- molar enthalpy: 48.57 ± 0.263 kcal/mol

Compound: CCCCN(CCCC)C(=S)NC(=O)c1cccs1 [N-((dibutylamino)thioxomethyl)-2-thiophenecarboxamide]
- molar enthalpy: 48.92 ± 0.263 kcal/mol
